Experimental data taken from patent publication US20020103261A1, “Compositions for injection or intravenous administration for the treatment of internal infection or inflammation in humans and animals” (priority 2000, published 2002).

Columns and labels:
[1] = Solubility in lipids; type: physicochemical
[2] = inactive metabolites after enzymatic degradation; cited from earlier work

Row | Compound | solubility in lipids [1] | metabolites excreted in the urine [2] | metabolites expired from the lungs in the form of CO2 [2] [%]
1 | Cc1ccc(C(C)C)cc1O [isopropyl-o-cresol, 5-isopropyl-2-methylphenol] | soluble in lipids | approx. 90% | 10
2 | Cc1ccc(C(C)C)c(O)c1 [isopropyl-cresol, 5-methyl-2[1-methylethyl]phenol] | – | – | 10
